Results from patent US10259807B2, “1-(piperazin-1-yl)-2-([1,2,4]triazol-1-yl)-ethanone derivatives” (Idorsia Pharmaceuticals Ltd., priority 2013, dated 2019).

Key:
[1] = target: T1, hERG K channel (Homo sapiens, UniProt Q12809); experiment: hERG Q-Patch assay; type: cell-based; conditions: CHO cells expressing hERG, K+ tail current 3 min after application, mean of two or three experiments
T1 construct: host or cells: CHO
Method: B) hERG Q-Patch assay: Compounds are evaluated for block of the hERG K channel using CHO cells stably expressing the hERG gene (accession number U04270, bSys, Witterswil. Switzerland) and the Patch robotic platform (Sophion, Ballerup, Denmark) in single-cell mode at room temperature. […] When the cells are ˜80% confluent (every 2-3 days), they are either split for further culture or used for electrophysiology. […] Cells are kept in suspension medium at 32-35° C. in the QPatch robot until use, at which time aliquots are transferred to the extracellular solution (in mM: NaCl 150; KCl 4; CaCl2 1.2; MgCl2 1; HEPES 10; pH 7.4 with NaOH) containing 0.3% v/v DMSO and applied to the test plates. K^+ currents are measured with the patch-voltage-clamp technique in the whole-cell configuration with the internal solution (in […]: KCl, 140; NaCl, 10; MgCl2, 1; HEPES, 10; EGTA, 5; pH=7.2 with KOH). […] K^+tail currents are produced from a holding voltage of −80 mV by a 500-ms depolarization to +20 mV followed by a 500-ms repolarization to −40 mV; tail current amplitudes are measured at the end of the repolarization to −40 mV. The pulse pattern is repeated every 10 sec during the experiment, baseline K^+ current is measured after 3 min in extracellular solution, test-solution containing compound is then applied, and K^+ current in presence of compound is measured 3 minutes after application to the cells.

[2] = Human liver microsome assay (metabolic stability); type: in vitro ADME; conditions: human liver microsomes 0.5 mg/mL, compound 1 μM, 37° C., pH 7.4, NADPH-regenerating system
Method: Incubation with human liver microsomes was performed to assess metabolic stability at a single compound concentration of 1 μM. A 1 μL-aliquot of the compounds stock solutions in DMSO were added to 899 μL of 100 mM phosphate buffer (pH 7.4) containing the liver microsomes at a concentration of 0.5 mg/mL and the mixture was incubated at 37° C. in an Eppendorf thermomixer at 450 rpm. The reaction was initiated by addition of 100 μL of NADPH-regenerating system containing the glucose-6-phosphate dehydrogenase and at the pre-defined time points, 0, 1.5, 2.5, 5, 10, and 15 min, 100 μL of the incubation was transferred in 100 μL of ice-cold methanol to stop the reaction. Samples were centrifuged at 3220 g for 20 min at 4° C. and the supernatants were submitted to LC/MS-MS analysis.
Calculation of intrinsic clearance CLint:
Natural logarithm of remaining amount of compound was plotted as function of time and the slope of the line determined.
Elimination rate constant (k)=−slope
V=volume of incubation/amount of protein

[3] = target: T2, human CXCR3A (Homo sapiens, UniProt P49682); experiment: FLIPR assay (CXCL10-induced calcium signal in CHO-K1 cells); type: cell-based; conditions: CHO-K1 cells expressing human CXCR3A coupled to Galpha(16); CXCL10 agonist 20 nM; mean values
T2 construct: expressed in transfected cells; host or cells: CHO-K1
T2 sequence (P49682 1-368): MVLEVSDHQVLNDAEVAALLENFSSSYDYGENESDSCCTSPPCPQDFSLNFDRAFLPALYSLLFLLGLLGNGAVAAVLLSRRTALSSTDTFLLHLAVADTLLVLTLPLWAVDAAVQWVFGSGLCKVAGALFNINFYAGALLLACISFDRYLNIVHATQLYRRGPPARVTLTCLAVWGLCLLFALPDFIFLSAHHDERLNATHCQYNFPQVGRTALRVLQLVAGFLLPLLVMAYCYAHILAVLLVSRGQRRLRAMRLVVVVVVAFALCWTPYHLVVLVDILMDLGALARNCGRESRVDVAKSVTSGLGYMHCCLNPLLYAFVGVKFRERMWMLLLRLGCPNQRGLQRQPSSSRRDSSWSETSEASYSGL
Method: A) FLIPR assay: The bioactivity of compounds is tested in a fluorometric imaging plate reader (FLIPR: Molecular Devices) using engineered CHO-K1 cells expressing the human CXCR3A (GenBank: AY242128) coupled to a G protein (Galpha(16)). Cells are plated the day prior to bioassay in F12 medium supplemented with 10% FBS and G418 and hygromycin antibiotics to maintain recombinant selection. […] Cells are washed free of excess dye and 60 microliter of wash buffer is added. Stock solutions of test compounds are made up at a concentration of 10 mM in DMSO, and serially diluted in dilution buffer to concentrations required for inhibition dose response curves. After a 10 minute incubation period at 37° C., 10 microliters of each compound dilution are transferred from a compound plate to the plate containing the recombinant cells in the FLIPR instrument according to the manufacturer's instructions. Following basal readings, 10 microliter CXCL10 agonist at a concentration of 20 nM (from Peprotech) is added, again using the FLIPR instrument. Changes in fluorescence are monitored before and after addition of the test compounds. Emission peak values above base level after CXCL10 addition are exported after base line subtraction. The program XLfit is used to fit the data to a single site dose response curve and to calculate IC50 values. The calculated IC50 values may fluctuate depending on the daily assay performance. Fluctuations of this kind are known to those skilled in the art.

T1 sequence (Q12809 whole entry): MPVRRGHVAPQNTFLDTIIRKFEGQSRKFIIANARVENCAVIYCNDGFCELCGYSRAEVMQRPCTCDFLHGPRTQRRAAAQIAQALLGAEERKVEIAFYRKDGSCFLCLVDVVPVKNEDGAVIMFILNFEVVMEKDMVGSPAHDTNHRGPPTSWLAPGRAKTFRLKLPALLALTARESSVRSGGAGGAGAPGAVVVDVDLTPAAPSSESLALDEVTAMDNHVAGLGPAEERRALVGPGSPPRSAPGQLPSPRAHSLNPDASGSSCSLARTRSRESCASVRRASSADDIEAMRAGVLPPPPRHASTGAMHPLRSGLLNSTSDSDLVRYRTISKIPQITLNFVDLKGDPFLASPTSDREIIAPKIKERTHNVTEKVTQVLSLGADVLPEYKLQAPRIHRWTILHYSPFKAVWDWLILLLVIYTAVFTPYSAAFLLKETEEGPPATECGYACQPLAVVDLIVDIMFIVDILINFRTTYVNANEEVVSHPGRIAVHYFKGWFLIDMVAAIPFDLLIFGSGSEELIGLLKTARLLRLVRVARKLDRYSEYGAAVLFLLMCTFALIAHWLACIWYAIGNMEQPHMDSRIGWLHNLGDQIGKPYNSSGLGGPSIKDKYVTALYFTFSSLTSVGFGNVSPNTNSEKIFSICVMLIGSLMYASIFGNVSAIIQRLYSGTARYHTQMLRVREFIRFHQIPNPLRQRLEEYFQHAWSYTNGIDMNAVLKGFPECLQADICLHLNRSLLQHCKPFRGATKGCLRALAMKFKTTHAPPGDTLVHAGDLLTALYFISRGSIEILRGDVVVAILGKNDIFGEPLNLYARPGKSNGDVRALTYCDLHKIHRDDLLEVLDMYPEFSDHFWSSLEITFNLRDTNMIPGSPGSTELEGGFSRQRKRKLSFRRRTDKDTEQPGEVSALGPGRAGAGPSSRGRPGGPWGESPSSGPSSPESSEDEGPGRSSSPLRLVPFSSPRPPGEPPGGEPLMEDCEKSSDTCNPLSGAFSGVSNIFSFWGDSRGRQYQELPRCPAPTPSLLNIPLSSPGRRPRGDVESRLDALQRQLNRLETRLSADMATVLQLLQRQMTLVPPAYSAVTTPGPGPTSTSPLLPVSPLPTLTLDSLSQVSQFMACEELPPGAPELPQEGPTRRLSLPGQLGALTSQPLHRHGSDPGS

Cc1nc(C)n(CC(=O)N2CCN(c3sc(C(F)(F)F)nc3-c3cnc(OC(C)C)nc3)C[C@H]2C)n1 [Example 27, 2-(3,5-Dimethyl-[1,2,4]triazol-1-yl)-1-{(R)-4-[4-(2-isopropoxy-pyrimidin-5-yl)-2-trifluoromethyl-thiazol-5-yl]-2-methyl-piperazin-1-yl}-ethanone]
% block ([1]; concentration 300 nM): 2% | % block ([1]; concentration 3000 nM): 6% | microsomal CLint at 1 µM [2]: 13 µL/min/mg | IC50 [3]: 3.5 nM

Cc1nc(C)n(CC(=O)N2CCN(c3sc(C(F)(F)F)nc3-c3ccc(Cl)cc3)C[C@H]2C)n1 [Example 7, 1-{(R)-4-[4-(4-Chloro-phenyl)-2-trifluoromethyl-thiazol-5-yl]-2-methyl-piperazin-1-yl}-2-(3,5-dimethyl-[1,2,4]triazol-1-yl)-ethanone]
% block ([1]; concentration 300 nM): 34% | % block ([1]; concentration 3000 nM): 88% | microsomal CLint at 1 µM [2]: 7 µL/min/mg | IC50 [3]: 9.3 nM

CCOc1ncc(-c2nc(C(F)(F)F)sc2N2CCN(C(=O)Cn3nc(C)nc3C)[C@H](C)C2)cn1 [Example 20, 2-(3,5-Dimethyl-[1,2,4]triazol-1-yl)-1-{(R)-4-[4-(2-ethoxy-pyrimidin-5-yl)-2-trifluoromethyl-thiazol-5-yl]-2-methyl-piperazin-1-yl}-ethanone]
% block ([1]; concentration 300 nM): 9% | % block ([1]; concentration 3000 nM): 20% | microsomal CLint at 1 µM [2]: 8 µL/min/mg | IC50 [3]: 5.7 nM

CC[C@@H]1CN(c2sc(C(F)(F)F)nc2-c2cnc(C(F)(F)F)nc2)CCN1C(=O)Cn1nc(C)nc1C [Example 51, 2-(3,5-Dimethyl-[1,2,4]triazol-1-yl)-1-{(R)-2-ethyl-4-[2-trifluoromethyl-4-(2-trifluoromethyl-pyrimidin-5-yl)-thiazol-5-yl]-piperazin-1-yl}-ethanone]
% block ([1]; concentration 300 nM): 6% | % block ([1]; concentration 3000 nM): 18% | microsomal CLint at 1 µM [2]: 1 µL/min/mg | IC50 [3]: 0.6 nM

CCCc1ncc(-c2nc(C(F)(F)F)sc2N2CCN(C(=O)Cn3nc(C)nc3C)[C@H](C)C2)cn1 [Example 22, 2-(3,5-Dimethyl-[1,2,4]triazol-1-yl)-1-{(R)-2-methyl-4-[4-(2-propyl-pyrimidin-5-yl)-2-trifluoromethyl-thiazol-5-yl]-piperazin-1-yl}-ethanone]
% block ([1]; concentration 300 nM): 1% | % block ([1]; concentration 3000 nM): 7% | microsomal CLint at 1 µM [2]: 78 µL/min/mg | IC50 [3]: 2.9 nM

CCOc1ccc(-c2nc(C(F)(F)F)sc2N2CCN(C(=O)Cn3nc(C)nc3C)[C@H](C)C2)cn1 [Example 15, 2-(3,5-Dimethyl-[1,2,4]triazol-1-yl)-1-{(R)-4-[4-(6-ethoxy-pyridin-3-yl)-2-trifluoromethyl-thiazol-5-yl]-2-methyl-piperazin-1-yl}-ethanone]
% block ([1]; concentration 300 nM): 1% | % block ([1]; concentration 3000 nM): 13% | microsomal CLint at 1 µM [2]: 66 µL/min/mg | IC50 [3]: 9.2 nM

Cc1nc(C)n(CC(=O)N2CCN(c3sc(C(F)(F)F)nc3-c3cnc(C4CC4)nc3)C[C@H]2C)n1 [Example 33, 1-{(R)-4-[4-(2-Cyclopropyl-pyrimidin-5-yl)-2-trifluoromethyl-thiazol-5-yl]-2-methyl-piperazin-1-yl}-2-(3,5-dimethyl-[1,2,4]triazol-1-yl)-ethanone]
% block ([1]; concentration 300 nM): 4% | % block ([1]; concentration 3000 nM): 17% | microsomal CLint at 1 µM [2]: 7 µL/min/mg | IC50 [3]: 2.9 nM

Cc1nc(C)n(CC(=O)N2CCN(c3sc(C(F)(F)F)nc3-c3cnc(OC4CCC4)nc3)C[C@H]2C)n1 [Example 38, 1-{(R)-4-[4-(2-Cyclobutoxy-pyrimidin-5-yl)-2-trifluoromethyl-thiazol-5-yl]-2-methyl-piperazin-1-yl}-2-(3,5-dimethyl-[1,2,4]triazol-1-yl)-ethanone]
% block ([1]; concentration 300 nM): 5% | % block ([1]; concentration 3000 nM): 11% | microsomal CLint at 1 µM [2]: 51 µL/min/mg | IC50 [3]: 2.3 nM

Cc1nc(C)n(CC(=O)N2CCN(c3sc(C(F)(F)F)nc3-c3ccc(C(F)(F)F)nc3)C[C@H]2C)n1 [Example 49, 2-(3,5-Dimethyl-[1,2,4]triazol-1-yl)-1-{(R)-2-methyl-4-[2-trifluoromethyl-4-(6-trifluoromethyl-pyridin-3-yl)-thiazol-5-yl]-piperazin-1-yl}-ethanone]
microsomal CLint at 1 µM [2]: 4 µL/min/mg | IC50 [3]: 3.6 nM

Cc1nc(C)n(CC(=O)N2CCN(c3sc(C(F)(F)F)nc3-c3cnc(C(C)(F)F)nc3)C[C@H]2C)n1 [Example 52, 1-((R)-4-{4-[2-(1,1-Difluoro-ethyl)-pyrimidin-5-yl]-2-trifluoromethyl-thiazol-5-yl}-2-methyl-piperazin-1-yl)-2-(3,5-dimethyl-[1,2,4]triazol-1-yl)-ethanone]
% block ([1]; concentration 300 nM): 2% | % block ([1]; concentration 3000 nM): 6% | IC50 [3]: 4.5 nM

Cc1nc(C)n(CC(=O)N2CCN(c3sc(C(F)(F)F)nc3-c3cnc(C(F)(F)F)nc3)C[C@@H]2C)n1 [Example 50, 2-(3,5-Dimethyl-[1,2,4]triazol-1-yl)-1-{(S)-2-methyl-4-[2-trifluoromethyl-4-(2-trifluoromethyl-pyrimidin-5-yl)-thiazol-5-yl]-piperazin-1-yl}-ethanone]
microsomal CLint at 1 µM [2]: 11 µL/min/mg

CCOc1ncc(-c2nc(C(F)(F)F)sc2N2CCN(C(=O)Cn3nc(CC)nc3C)[C@H](C)C2)cn1 (single isomer, unassigned) [Example 18]
% block ([1]; concentration 300 nM): 3% | % block ([1]; concentration 3000 nM): 13% | microsomal CLint at 1 µM [2]: 60 µL/min/mg | IC50 [3]: 3.1 nM

Cc1nc(CO)n(CC(=O)N2CCN(c3sc(C(F)(F)F)nc3-c3cnc(C(F)(F)F)nc3)C[C@H]2C)n1 [Example 45, 2-(5-Hydroxymethyl-3-methyl-[1,2,4]triazol-1-yl)-1-{(R)-2-methyl-4-[2-trifluoromethyl-4-(2-trifluoromethyl-pyrimidin-5-yl)-thiazol-5-yl]-piperazin-1-yl}-ethanone]
% block ([1]; concentration 300 nM): 0% | % block ([1]; concentration 3000 nM): 1% | microsomal CLint at 1 µM [2]: 14 µL/min/mg | IC50 [3]: 15 nM

Cc1nc(C)n(CC(=O)N2CCN(c3sc(C(F)(F)F)nc3-c3cnc(N4CCCC4)nc3)C[C@H]2C)n1 [Example 36, 2-(3,5-Dimethyl-[1,2,4]triazol-1-yl)-1-{(R)-2-methyl-4-[4-(2-pyrrolidin-1-yl-pyrimidin-5-yl)-2-trifluoromethyl-thiazol-5-yl]-piperazin-1-yl}-ethanone]
% block ([1]; concentration 300 nM): 7% | % block ([1]; concentration 3000 nM): 15% | microsomal CLint at 1 µM [2]: 338 µL/min/mg | IC50 [3]: 1.6 nM

Cc1nc(C)n(CC(=O)N2CCN(c3sc(C(F)(F)F)nc3-c3cnc4c(c3)CCCO4)C[C@H]2C)n1 [Example 39, 1-{(R)-4-[4-(3,4-Dihydro-2H-pyrano[2,3-b]pyridin-6-yl)-2-trifluoromethyl-thiazol-5-yl]-2-methyl-piperazin-1-yl}-2-(3,5-dimethyl-[1,2,4]triazol-1-yl)-ethanone]
% block ([1]; concentration 300 nM): 3% | % block ([1]; concentration 3000 nM): 15% | IC50 [3]: 31 nM
